Structures are written as SMILES. Where “and” joins values, the source holds several entries; their conditions need not be identical. Identical values can stand only once. Where only a bound is given, the exact number is not on record here.

As usually defined, the solubility is the concentration that dissolves in the medium under given conditions. Higher therefore signals a readily soluble substance.

In data set [1] the test system is growth hormone. The data set is described as follows: Simulated sustained release study (bolus vs divided oral solution): serum growth hormone. The class given is in vivo, human. To be noted: for GH Tmax: individual subjects 1-4. The method, then: This dosing regimen simulates active compound delivery by a sustained release dosage form. […] Serum concentrations of growth hormone were monitored just prior to administration of the first dose and every 20 minutes thereafter for 24 hours. Serum […] growth factor-I (IGF-I) concentrations were measured at 0, 12, and 24 hours post-first dose.
The order of treatment was defined by a randomization schedule. Following initial administration, subjects were readmitted to the clinical research facility approximately 14 days later. During the second evaluation, the subject received the treatment not used during the previous session.
Growth hormone serum concentrations were determined following administration of the bolus or divided doses. Blood samples, adequate to provide 0.5 ml of serum, were collected just prior to administration of the first dose, and every 20 minutes thereafter for 24 hours for determination of growth hormone. Specimens were collected in tubes containing no additives, and were maintained at room temperature until clotted. The serum was separated from the whole blood and frozen at −20° C. within one hour of collection.
Growth hormone quantitation of the human serum samples was conducted using luminescence measurements by means of an Immulite® system (Diagnostic Products Corporation, Los Angeles, Calif.). All analyses were performed using a hGH Immulite® kit containing hGH test units (LGH 1), hGH reagent wedge (LGH 2) and hGH adjustors (LGHL and LGHH). These kits were obtained from DPC (Diagnostic Products Corporation, Los Angeles, Calif.). In addition, hGH sample diluent (LGHZ), chemiluminescent substrate module (LSUBX), probe wash module (LPWSZ) and the necessary Immulite® accessories were obtained from DPC. For each new kit, the Immulite® system was calibrated by running two adjuster samples (LGHL and LGHH) obtained from the manufacturer, containing a […] concentration of hGH in equine serum, respectively. […] The resulting luminescence was determined by means of an Immulite® system.

Data set [2] deals with rat pituitary cells. The data set is described as follows: Pituitary cell desensitization - growth hormone release assay. The note with it: for GH release: treatment 10 nM Compound A 15 min. The class given is cell-based. The method, then:
The experiment was designed so that cultures were exposed to a growth hormone secretagogue for 60 min, then growth hormone release was measured during a subsequent 15 min exposure to the same or different growth hormone secretagogue.
Anterior pituitary glands from male Wistar rats (150-175 g, Charles River, Laboratories, Wilmington, Mass.) were collected in Hank's Balanced Salt Solution (#14170, Life Technologies, Gaithersburg, Md.). Glands were minced with a scalpel, then incubated with bacterial protease (Type IX, EC3.4.24.4, #P-6141, Sigma Chemicals, Milwaukee, Wis.) at 10 U/ml to release individual cells. Cells were pelleted by centrifugation at 200×g for 15 min, then suspended in culture medium and plated at a density of 6.0-6.5×10^4 cells per 0.5 ml per well in 48-well tissue culture plates (#3848, Costar Corporation, Cambridge, Mass.). Culture medium consisted of D-MEM (Dulbecco's Modified Eagle Medium) with high glucose and sodium bicarbonate (#11965) supplemented with 10% heat-inactivated horse serum (#26050, Life Technologies, Gaithersburg, Md.), 2.5% fetal bovine serum (#16140, Life Technologies, Gaithersburg, Md.), 0.1 mM MEM non-essential amino acids (#11140, Life Technologies, Gaithersburg, Md.), 100 U/ml nystatin (#15340, Life Technologies, Gaithersburg, Md.) and 50 ug/ml gentamicin sulfate (#15750, Life Technologies, Gaithersburg, Md.). Cultures were maintained for 3-4 days in a humidified, 5% CO2/95% air incubator at 37° C. prior to performing assays for growth hormone release.
For growth hormone release assays, cultures were pre-equilibrated at 37° C. in pre-warmed release medium for 1 h in the presence of a growth hormone secretagogue or excipient (Pretreatment). Release medium consisted of Phenol Red-free D-MEM without bicarbonate (#23800, Life Technologies, Gaithersburg, Md.) supplemented with 25 mM N-[2-hydroxyethyl]piperazine-N′-[2-ethanesulfonic acid] (HEPES), 4.5 g/L glucose, 0.11 g/L sodium pyruvate, 0.584 g/L […] and 0.5% bovine serum albumin (#A-7888, Sigma Chemicals, Milwaukee, Wis.), adjusted to pH 7.4. After pretreatment, the medium was removed and replaced with fresh pre-warmed release medium containing a growth hormone secretagogue or excipient at 0.5 ml/well for 15 min (Treatment). Medium from the Treatment was collected, centrifuged to remove any cells, then assayed for growth hormone content by a conventional double-antibody radioimmunoassay using monkey anti-growth hormone antisera (NIDDK anti-rGH-S-5) and reference rat growth hormone standard (NIDDK-rGH-RP) from Dr. A. F. Parlow, Harbor-UCLA Medical Center, Torrance, Calif. Immune complexes were precipitated using goat anti-monkey immunoglobulin G (#55418, Cappel, Durham, N.C.).
Growth hormone secretagogue solutions were prepared at 1000 times the desired concentration and diluted into pre-warmed release medium immediately before use. Peptides such as His-D-Trp-Ala-Trp-Ala-Trp-D-Phe-Lys-NH2 (GHRP-6, #8061, Peninsula Laboratories, Belmont, Calif.) and rat growth hormone releasing factor (GHRH, #8068, Peninsula Laboratories, Belmont, Calif.) were dissolved at 100 μM in 4 mM acetic acid, 10% ethanol, 0.1% bovine serum albumin; other growth hormone secretagogues were dissolved at 5 mM in dimethyl sulfoxide.

The nature of data set [3]: Solubility and osmotic pressure of the active compound (statement). The class given is physicochemical.

Take `CN1N=C2CCN(C(=O)[C@@H](COCc3ccccc3)NC(=O)C(C)(C)N)C[C@@]2(Cc2ccccc2)C1=O.O=C(O)C(O)C(O)C(=O)O` [Compound A]: the GH Tmax in data set [1] (10 mg bolus, L-tartrate) is 1 h (3×) and 0.67 h; in data set [1] (10 mg divided, in h), 1. In data set [1] (simulated sustained release of 10 mg compared to bolus), the “frequency and amplitude of secondary GH peaks” value is “increased”. Further, the figures for the “growth hormone release response” value in data set [2] (after pretreatment with GHRH) and in data set [2] (after pretreatment with GHRP-6) were “stimulation of growth hormone release” and “not”, respectively. Moreover, the GH release in data set [2] (pretreatment 100 nM GHRH 60 min) is recorded as 36.99 ± 2.43 ng/mL/15 min; in data set [2] (pretreatment 100 nM GHRP-6 60 min), 7.64 ± 1.92 ng/mL/15 min; in data set [2] (pretreatment none), 25.17 ± 4.32 ng/mL/15 min. For the same compound, in data set [3], the osmotic pressure result is given as “about 4 atmospheres”. This compound also displayed a solubility in data set [3] (water) of over 150 mg/mL.

Source of the values: patent US6641840B2, “Sustained release formulations for growth hormone secretagogues” (Pfizer Inc., priority 2000, dated 2003).
